According to US11859087B2, “Fluorescent dye, preparation method therefor, and application thereof” (SUZHOU BAIYUAN GENT CO., LTD., priority 2018, dated 2024):
Counter-ions that a name gives are not always drawn.

What was measured:
[1] = Determination of the absorption spectrum of fluorescent dyes; format: physicochemical; conditions: 1.0×10^−5 mol/L in 50% by volume of ethanol
Text: The compounds prepared in Example 1 and Examples 4-6 were accurately weighed to prepare a solution having a concentration of 1.0×10^−5 mol/L using 50% by volume of ethanol. In FIG. 2, 1 represents the intermediate prepared in Example 1, and 2-4 represent the compound prepared in Examples 4-6, respectively.

[2] = Determination of the fluorescence spectrum of fluorescent dyes; format: physicochemical; conditions: for λem (max/nm): ethanol and water (50:50, v/v), 1.0×10^−6 mol/L, excitation at maximum absorption wavelength
Description: The fluorescence spectrum was measured using the maximum absorption wavelength in the measured near-infrared spectrum as the excitation wavelength of the fluorescence spectrum. The compounds prepared in Example 1 and Examples 4-6 were accurately weighed to prepare a solution of ethanol and water (50:50, v/v) at a concentration of 1.0×10^−6 mol/L. The emission spectrum of the solution was measured, and the result was shown in FIG. 1. In FIG. 1, 1 represents the intermediate prepared in Example 1, and 2-4 represent the compounds prepared in Examples 4-6, respectively.

[3] = Determination of molar extinction coefficient by UV-visible absorption spectroscopy; format: physicochemical; conditions: A=εcl
Description: The molar extinction coefficient of the compound was determined by UV-visible absorption spectroscopy. The formula for calculating molar extinction coefficient is as shown in equation (1): A=εcl Equation (1), wherein A represents ultraviolet absorption value, ε represents molar extinction coefficient, c represents concentration of the compound, and l represents thickness of the quartz cell for detection.

[4] = Determination of fluorescence quantum yield of fluorescent dyes; format: physicochemical; conditions: 20° C., absolute ethanol, quinine sulfate as reference
Description: The fluorescence quantum yield of the fluorescent dyes was determined at 20° C., and quinine sulfate (Solvent: 0.1M H2SO4, Quantum yield: 0.56) was used as a reference compound, then the fluorescence quantum yield was calculated by measuring fluorescence integral intensities obtained from the dilute solutions of the fluorescent dyes and the reference compound under the same excitation conditions and the ultraviolet absorption value at this excitation wavelength. The product was dissolved in absolute ethanol.
The formula for calculating fluorescence quantum yield is as shown in equation (2):
[formula] wherein Φ represents quantum yield of the compound to be measured, the subscript R represents reference compound, I represents fluorescence integral intensity, A represents ultraviolet absorption value, and η represents solvent refractive index. Generally, the ultraviolet absorption values A and AR are less than 0.1.

[5] = reference compound, solvent 0.1M H2SO4; cited from earlier work

Compound | λabs (max/nm) [1] [nm] | Stokes shift (nm) [2] [nm] | λem (max/nm) [2] [nm] | ε × 10^4 (M^−1 cm^−1) [3] | Φ (%) [4] [%] | Quantum yield [5]
CC1(C)C(/C=C/C2=C(NCC(=O)O)C(=C/C=C3/N(/C=C/Br)c4ccccc4C3(C)C)/CCC2)=[N+](/C=C/Br)c2ccccc21 [Example 4] | 785 | 38 | 815 | 8.5 × 10^4 M^−1 cm^−1 | 84.99 | –
CC1(C)C(/C=C/C2=C(NCO)C(=C/C=C3/N(/C=C/Br)c4ccccc4C3(C)C)/CCC2)=[N+](/C=C/Br)c2ccccc21 [Example 5] | 787 | 40 | 820 | 8.6 × 10^4 M^−1 cm^−1 | 86.00 | –
CC1(C)C(/C=C/C2=C(NCc3cccc(C(=O)O)c3)C(=C/C=C3/N(/C=C/Br)c4ccccc4C3(C)C)/CCC2)=[N+](/C=C/Br)c2ccccc21 [Example 6] | 790 | 34 | 829 | 9.0 × 10^4 M^−1 cm^−1 | 89.86 | –
C=C[C@H]1C[N@@]2CC[C@H]1C[C@H]2[C@H](O)c1ccnc2ccc(OC)cc12 [quinine sulfate] | – | – | – | – | – | 0.56
